Laboratory results: paper PMC11951083, “Highly Specific Miniaturized Fluorescent Monoacylglycerol Lipase Probes Enable Translational Research” (Journal of the American Chemical Society, 2025)

Target: T1, MAGL (Homo sapiens, UniProt Q99685)
T1 sequence (Q99685 1-303): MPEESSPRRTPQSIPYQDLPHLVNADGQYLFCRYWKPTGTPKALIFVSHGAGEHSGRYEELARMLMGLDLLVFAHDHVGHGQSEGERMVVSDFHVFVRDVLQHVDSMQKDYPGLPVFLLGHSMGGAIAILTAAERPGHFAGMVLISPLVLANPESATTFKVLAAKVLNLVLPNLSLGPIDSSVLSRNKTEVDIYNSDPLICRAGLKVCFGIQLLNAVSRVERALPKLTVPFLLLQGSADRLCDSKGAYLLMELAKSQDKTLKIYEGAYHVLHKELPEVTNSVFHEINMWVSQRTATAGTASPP
Assay: Fluorescence polarization titration of probe 5 with purified hMAGL
Assay type: binding
Details: FP titration, probe 20 nM
Description: Fluorescence Polarization Assay
Determination of the Kd of the fluorescent probes
Commercially available purified hMAGL protein (Cepter Biopartners, Nutley, NJ, USA) was diluted in PBS-buffer pH 7.4 + 0.1% Tween 80, in a range of concentrations and incubated with compound 5 (20 nM = [L]T) at ambient temperature for 60 min. Fluorescence polarization was determined via a Tecan Spark multimode plate reader (Ex/Em = 482/502 nm , 7.5 nm bandwidth each) in a 384 flat black well plate (Corning); six measurements per data point. The experiment was carried out in triplicate. Data were analyzed via GraphPad Prism 5.0 software. K d of the fluoroprobe was calculated from the observed MAGL concentration at half-maximal FP (FP50) as follows.
K = [L][P] = 0.5 [L]T (FP50 − 0.5 [L]T) = FP − 0.5 [L]
Competitive FP Binding Assay hMAGL in PBS-buffer pH 7.4 + 0.1% tween 80 at a final concentration of 50 nM was incubated with a range of inhibitor DMSO solutions (5µL) (serial dilution 1:3) for 30 min at ambient temperature in a 384 flat black well plate (Corning). […] After 30 min incubation at ambient temperature, fluorescence polarization was determined as described above. Data were analyzed via GraphPad Prism 5.0 software, and IC50 values were converted to Ki according to Nikolovska-Coleska et al. 28 Under these conditions the assay performed with an average z´= 0.90. […]

## O=C(N1CC2(CC(CC3=C4C=CC=[N+]4[B-](F)(F)n4cccc43)C2)C1)N1CC2(CC(n3cnc(C4CC4)n3)C2)C1 [Compound 5]
  Kd: 6.65 nM
